Experimental data published in the OligoGym collection.
“And” between values parts separate entries of the source, which are not always exact repeats. Equal entries are not always repeated. After the bases stand the sugars from the 5' end (letter, count) and the backbone: PS all phosphorothioate, else s phosphorothioate and o phosphodiester by linkage. Methylation of C is not given here. e = 2'-O-(2-methoxyethyl) (MOE); k = constrained ethyl (cEt); d = 2'-deoxy (DNA)

Target: APOL1
Conditions: ASO

With “CAGTTTTGTAAGTGCA (sugars k3 d4 k3 e1 d5, PS)” the target mRNA inhibition (A431, 2 µM) was 92%.
Sequence “CAGTTTTGTAAGTGCA (sugars k3 d5 k3 d5, PS)” has a target mRNA inhibition (A431, 2 µM) of 97%.
With “CAGTTTTGTAAGTGCA (sugars kkddddekekeddddd, PS)” the target mRNA inhibition (A431, 2 µM) was 91%.
With “CAGTTTTGTAAGTGCA (sugars kkddddkekekddddd, PS)” the target mRNA inhibition (A431, 2 µM) was 91%.
In the case of “CAGTTTTGTAAGTGCA (sugars kkddddkekekkdddd, PS)”, the target mRNA inhibition (A431, 2 µM) is reported as 18%.
“CATTCAGAATTTCCAC (sugars k3 d5 k3 d5, PS)” was tested, and the target mRNA inhibition (A431, 2 µM) was 94%.
“CATTCAGAATTTCCAC (sugars kdddddkekekddddd, PS)” gave a target mRNA inhibition (A431, 2 µM) of 67%.
For “CATTCAGAATTTCCAC (sugars kkdddddkekeddddd, PS)”, the target mRNA inhibition (A431, 2 µM) was 84%.
“CATTCAGAATTTCCAC (sugars kkddddkdkdkddddd, PS)” was tested, and the target mRNA inhibition (A431, 2 µM) was 84%.
Work on “CATTCAGAATTTCCAC (sugars kkkddddkdkdkdddd, PS)” yielded a target mRNA inhibition (A431, 2 µM) of 88%.
In the case of “CATTCAGAATTTCCAC (sugars kkkddddkekekdddd, PS)”, the target mRNA inhibition (A431, 2 µM) is reported as 65%.
For CCACATTTGAGATTAT (sugars k4 d9 k3, PS), the target mRNA inhibition (A431, 0.0625 µM) was 37%, the target mRNA inhibition (A431, 0.25 µM) was 72% and the target mRNA inhibition (A431, 1 µM) was 90%.
In the case of CCAGCAAAGACAAGAA (sugars k4 d9 k3, PS), the target mRNA inhibition (A431, 0.0625 µM) is reported as 9% and 0%, the target mRNA inhibition (A431, 0.25 µM) is reported as 49% and 30% and the target mRNA inhibition (A431, 1 µM) is reported as 64% and 55% and 50%.
CCCCTGCCAGGCATAT (sugars k4 d9 k3, PS) was tested, and the target mRNA inhibition (A431, 0.0625 µM) was 22%, the target mRNA inhibition (A431, 0.25 µM) was 42% and the target mRNA inhibition (A431, 1 µM) was 44%.
Work on CCTTAATGTAAATTCC (sugars k4 d9 k3, PS) yielded a target mRNA inhibition (A431, 0.0625 µM) of 32%, a target mRNA inhibition (A431, 0.25 µM) of 61% and a target mRNA inhibition (A431, 1 µM) of 80%.
CCTTACTGCAGTTTCA (sugars k4 d9 k3, PS) showed a target mRNA inhibition (A431, 0.0625 µM) of 47%, a target mRNA inhibition (A431, 0.25 µM) of 79% and a target mRNA inhibition (A431, 1 µM) of 91%.
For CGATTGTCTTGTTTTT (sugars k4 d9 k3, PS), the target mRNA inhibition (A431, 0.0625 µM) was 70% and 79%, the target mRNA inhibition (A431, 0.25 µM) was 90% and 88% and the target mRNA inhibition (A431, 1 µM) was 97% and 94%.
For “CGCAATGCTGACTTGG (sugars k2 d4 e4 k2 d4, PS)”, the target mRNA inhibition (A431, 2 µM) was 68%.
“CGTCAATATATTCTTT (sugars k2 d4 e3 k2 d5, PS)” gave a target mRNA inhibition (A431, 2 µM) of 81%.
“CGTCAATATATTCTTT (sugars k3 d5 k3 d5, PS)” was tested, and the target mRNA inhibition (A431, 0.0156 µM) was 38%, the target mRNA inhibition (A431, 0.0625 µM) was 56% and 62% and the target mRNA inhibition (A431, 0.25 µM) was 84% and 87%. It also gave a target mRNA inhibition (A431, 1 µM) of 93% and a target mRNA inhibition (A431, 2 µM) of 94%.
Work on “CGTCAATATATTCTTT (sugars kddddkekekeddddd, PS)” yielded a target mRNA inhibition (A431, 0.0156 µM) of 0%, a target mRNA inhibition (A431, 0.0625 µM) of 46% and a target mRNA inhibition (A431, 0.25 µM) of 78%. The target mRNA inhibition (A431, 1 µM) was 90% and the target mRNA inhibition (A431, 2 µM) was 96%.
With “CGTCAATATATTCTTT (sugars kekddddeekkddddd, PS)” the target mRNA inhibition (A431, 2 µM) was 93%.
For “CGTCAATATATTCTTT (sugars kkddddkekekkdddd, PS)”, the target mRNA inhibition (A431, 0.0156 µM) was 3%, the target mRNA inhibition (A431, 0.0625 µM) was 36% and the target mRNA inhibition (A431, 0.25 µM) was 70%. It also gave a target mRNA inhibition (A431, 1 µM) of 88% and a target mRNA inhibition (A431, 2 µM) of 95%.
“CGTGTTATATTTGATC (sugars kkddddkekekddddd, PS)” was tested, and the target mRNA inhibition (A431, 2 µM) was 88%.
In the case of “CTAATTTTCTGACTGT (sugars k3 d4 k3 e1 d5, PS)”, the target mRNA inhibition (A431, 0.0156 µM) is reported as 35%, the target mRNA inhibition (A431, 0.04 µM) is reported as 59% and the target mRNA inhibition (A431, 0.0625 µM) is reported as 69%. For the same sequence, the target mRNA inhibition (A431, 0.25 µM) was 88%, the target mRNA inhibition (A431, 1 µM) was 99% and 96% and the target mRNA inhibition (A431, 2 µM) was 99%.
For “CTAATTTTCTGACTGT (sugars kkddddkekekddddd, PS)”, the target mRNA inhibition (A431, 2 µM) was 83%.
“CTGTTCTAACTCTTGG (sugars k2 d4 e3 k2 d5, PS)” gave a target mRNA inhibition (A431, 2 µM) of 93%.
“CTGTTCTAACTCTTGG (sugars kkkddddkekekdddd, PS)” showed a target mRNA inhibition (A431, 2 µM) of 88%.
In the case of CTTGTTTTATGGAGTC (sugars k4 d9 k3, PS), the target mRNA inhibition (A431, 0.0625 µM) is reported as 85% and 91%, the target mRNA inhibition (A431, 0.25 µM) is reported as 97% and the target mRNA inhibition (A431, 1 µM) is reported as 99%.
For “CTTTAAACTCAGGTGA (sugars k2 d4 e3 k2 d5, PS)”, the target mRNA inhibition (A431, 0.0156 µM) was 19%, the target mRNA inhibition (A431, 0.0625 µM) was 40% and the target mRNA inhibition (A431, 0.25 µM) was 61%. For the same sequence, the target mRNA inhibition (A431, 1 µM) was 85% and the target mRNA inhibition (A431, 2 µM) was 92%.
“CTTTAAACTCAGGTGA (sugars kdddddkekekddddd, PS)” was tested, and the target mRNA inhibition (A431, 2 µM) was 77%.
In the case of “CTTTAAACTCAGGTGA (sugars kkddddekekeddddd, PS)”, the target mRNA inhibition (A431, 2 µM) is reported as 91%.
In the case of “CTTTAAACTCAGGTGA (sugars kkddddkekekddddd, PS)”, the target mRNA inhibition (A431, 2 µM) is reported as 82%.
“CTTTATACCAGTGTCT (sugars k3 d4 k3 e1 d5, PS)” showed a target mRNA inhibition (A431, 0.0156 µM) of 19%, a target mRNA inhibition (A431, 0.0625 µM) of 54% and a target mRNA inhibition (A431, 0.25 µM) of 78%. The target mRNA inhibition (A431, 1 µM) was 91% and the target mRNA inhibition (A431, 2 µM) was 95%.
“CTTTATACCAGTGTCT (sugars kdddddkekekddddd, PS)” gave a target mRNA inhibition (A431, 2 µM) of 89%.
Work on “CTTTATACCAGTGTCT (sugars kddddkekekeddddd, PS)” yielded a target mRNA inhibition (A431, 2 µM) of 92%.
“CTTTATACCAGTGTCT (sugars kkddddkekekkdddd, PS)” showed a target mRNA inhibition (A431, 2 µM) of 87%.
With “CTTTATACCAGTGTCT (sugars kkkddddkekeddddd, PS)” the target mRNA inhibition (A431, 2 µM) was 94%.
“CTTTATACCAGTGTCT (sugars kkkddddkekekdddd, PS)” gave a target mRNA inhibition (A431, 2 µM) of 76%.
